This is an account of results in article PMC6832239, “The Effects of a Novel Series of KTTKS Analogues on Cytotoxicity and Proteolytic Activity” (Molecules, 2019).

Residues, ends and D or L forms follow the SMILES beside them.

The target in one data set is T1, plasmin (Homo sapiens, UniProt P00747).
T1 construct: purchased Chromogenix (Milano, Italy)
Also noted: method as in PMID 27434836. The settings on record: competitive and reversible inhibitor; cited from earlier work.

The target in another data set is T2, urokinase (Homo sapiens, UniProt P00749).
T2 construct: purchased Sigma (Schnelldorf, Germany)
Set-up: method as in PMID 27434836. To be noted: competitive and reversible inhibitor; cited from earlier work.

For the next data set, the system named is tryptase. Also noted: method as in PMID 27434836. To be noted: selectivity; cited from earlier work.
In a further data set the test system is kallikrein 5. Also noted: method as in PMID 27434836. To be noted: selectivity; cited from earlier work.
The next data set deals with kallikrein 7. Also noted: method as in PMID 27434836. To be noted: selectivity; cited from earlier work.
Another data set deals with neutrophil elastase. Also noted: method as in PMID 27434836. The settings on record: selectivity; cited from earlier work.
The nature of data set [1]: Viability of fibroblast cells, MTT assay. The settings on record: human, primary dermal fibroblast cells, 24 h, MTT, ± 2, read-out: Viability of fibroblast cells. It is filed as cell-based, Human. In a few lines: (§1)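 Primary dermal fibroblasts near 80% confluence were exposed for 24 h to peptides at 1, 10 or 100 μM, with matched DMSO controls. Then 4 h MTT (5 mg/mL), lysis in DMSO/Sorensen's buffer, absorbance at 570 nm; mean ± SD of three experiments in duplicate.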
(In general: Tetrazolium assays rely on reduction of a dye to a coloured formazan, in cell work by metabolically active cells.)

Data set [2] concerns primary dermal fibroblasts cells. Nature of the data set: Viability of fibroblast cells, MTT assay. It is filed as cell-based, Human. To be noted: MTT, 1-100 μM, 24 h. In a few lines: as §1
The test system of the next data set is collagen synthesis. Set-up: method as in PMID 19268583. To be noted: cited from earlier work.
Details of data set [3]: method as in PMID 25143811. To be noted: stratum corneum, epidermis, dermis; cited from earlier work.
The subject of a further data set is face wrinkles. Set-up: method as in PMID 19570099. The settings on record: oil-in-water cream twice daily for 8 and 12 weeks; cited from earlier work.
Another data set concerns human dermal fibroblasts. Also noted: method as in PMID 23320752. To be noted: cited from earlier work.

For orientation: Ki means the equilibrium dissociation constant of an inhibitor or competing ligand from its target. For orientation: viability means a per cent measure of how many cells are alive, often set against a control.

T1 sequence (P00747 581-810 limits assumed): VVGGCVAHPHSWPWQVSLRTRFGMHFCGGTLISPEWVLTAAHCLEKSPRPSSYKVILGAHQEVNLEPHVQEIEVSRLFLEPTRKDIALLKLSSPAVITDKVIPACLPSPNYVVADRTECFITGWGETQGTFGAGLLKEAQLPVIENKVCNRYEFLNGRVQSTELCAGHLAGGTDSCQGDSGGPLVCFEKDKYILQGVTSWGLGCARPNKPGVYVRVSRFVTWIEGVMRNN
T1 sequence (P00747 97-580 partner limits assumed): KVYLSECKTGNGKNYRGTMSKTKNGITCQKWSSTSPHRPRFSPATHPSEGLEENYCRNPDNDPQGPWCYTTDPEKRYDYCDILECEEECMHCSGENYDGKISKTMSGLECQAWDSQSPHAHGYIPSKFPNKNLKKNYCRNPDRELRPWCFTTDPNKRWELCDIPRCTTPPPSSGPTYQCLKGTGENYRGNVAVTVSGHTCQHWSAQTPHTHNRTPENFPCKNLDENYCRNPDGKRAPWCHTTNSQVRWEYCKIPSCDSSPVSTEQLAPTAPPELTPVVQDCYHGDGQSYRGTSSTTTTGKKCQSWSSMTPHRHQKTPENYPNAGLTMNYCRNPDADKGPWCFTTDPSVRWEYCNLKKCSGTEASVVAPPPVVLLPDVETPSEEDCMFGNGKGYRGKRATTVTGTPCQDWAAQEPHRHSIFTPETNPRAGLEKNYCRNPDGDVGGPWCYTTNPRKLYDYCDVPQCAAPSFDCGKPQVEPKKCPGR

With `N=C(N)c1ccc(CNC(=O)C(CCc2ccccc2)NC(=O)[C@@H](CO)NS(=O)(=O)Cc2ccccc2)cc1` (stereo partly drawn) [BSFAB, benzylsulfonyl-D-Ser-homoPhe-(4-amidinobenzylamide)], the figures for the Ki at plasmin and on urokinase were 29 nM and 25 nM, respectively. Moreover, in the data set with tryptase, the inhibition of tryptase entry is “did not inhibit”. In addition, the “inhibition of kallikrein 5” value in the data set with kallikrein 5 was “did not inhibit”. The “inhibition of kallikrein 7” value with kallikrein 7 is recorded as “did not inhibit”. The “inhibition of neutrophil elastase” value in the data set with neutrophil elastase is on record as “did not inhibit”.
In the case of `CCCCCCCCCCCCCCCC(=O)N[C@@H](CCCCN)C(=O)N[C@H](C(=O)N[C@H](C(=O)N[C@@H](CCCCN)C(=O)N[C@@H](CO)C(=O)O)[C@@H](C)O)[C@@H](C)O` [Peptide 4, Pal-Lys-Thr-Thr-Lys-Ser-OH, reference compound] (HELM PEPTIDE1{[CCCCCCCCCCCCCCCC(=O)[*:2]].K.T.T.K.S}$$$$V2.0), the viability at 24 h, 1 µmol/L in data set [1] (1 µmol/L) is 97%. Moreover, in data set [1] (10 µmol/L), the viability at 24 h, 10 µmol/L came out at 91%. Besides, the viability at 24 h, 100 µmol/L in data set [1] (100 µmol/L) stood at 85%. Also, the “cytotoxicity / cell growth effect on fibroblasts” value in [2] was “did not exhibit fibroblast growth”. The “increase of collagen synthesis” value with collagen synthesis is given as “over 150%”. For the same molecule, the “retention in skin layers” value in data set [3] is reported as “retained in different skin layers”. Moreover, the “length of wrinkles, age spots, skin texture versus placebo cream” value in the data set with face wrinkles is listed as “markedly improved”. Further, the collagen production entry in the data set with human dermal fibroblasts is listed as “stimulates collagen production in a concentration-dependent manner”.
